Legend:
[1] = target: human recombinant PAK1-KD protein (Homo sapiens, UniProt Q13153); experiment: PAK1-KD (Kinase Domain) IC50 Zlyte Assay (FRET peptide substrate phosphorylation); settings: Z'-LYTE, Biological Example 1
Text: PAK1-KD (Kinase Domain) IC50 Zlyte Assay Protocol
Activity of human recombinant PAK1-KD protein may be assessed in vitro by assay of the phosphorylation of a FRET peptide substrate. Catalytically active human recombinant PAK1-KD protein is obtained by purification from Tini cells infected with a human PAK1-KD recombinant baculovirus expression vector.
The activity/inhibition of PAK1-KD was estimated by measuring the phosphorylation of a FRET peptide substrate (Ser/Thr19) labeled with Coumarin and Fluorescein using Z′-LYTE™ assay (Invitrogen). The peptide substrate is a consensus sequence ([sequence]) based on various PAK substrates reported in the scientific literature. […] Incubations were carried out at 22° C. in black polypropylene 384-well plates (Corning Costar).

[2] = system: group I PAKs in EBC1 cells (MEK1 phosphorylation at S298); experiment: Cellular PAK IC50 Assay: MEK1 phosphorylation at S298 by HTRF; type: cell-based; settings: Homo sapiens, EBC-1, 2 h treatment, media containing 0.1% FBS, phospho-MEK1 (S298) HTRF
Experimental: Cellular PAK IC50 Assay Protocol
Group I PAKs (PAK1-3) are activated upon binding to the Rho GTPases, Rac1 and Cdc42. Activated group I PAKs phosphorylate MEK1 at Serine 298 (S298), one of the two sites in the catalytic domain that is important for stable association between Raf and MEK1 and subsequent MAPK activation. The inhibition of group I PAKs in EBC1 cells is assessed by detecting changes in the level of MEK1 phosphorylation at S298 using homogenous time-resolved fluorescence (HTRF). Inhibitory activity was estimated by treating 2×10^4 EBC1 cells for 2 h with PAK inhibitors in media containing 0.1% FBS. Following inhibitor treatment, cells were lysed with 25 μL of 1× cellular kinase lysis buffer (Cisbio) containing 1× cellular kinase blocking reagent (Cisbio). Cellular lysis was carried out at 4° C. for 2 h with constant shaking before lysate (16 μL) was transferred to white 384-well ProxiPlates™ (Perkin Elmer). Anti-total MEK1 antibody labeled with Europium cryptate donor (1 ng/well) (Cell Signaling Technologies catalog number 2352) and anti-phospho MEK1 (S298) antibody labeled with d2 acceptor (Cell Signaling Technologies catalog number 9128) (10 ng/well) were prepared in 1× detection buffer (CisBio) and added to each well of the assay plate and allowed to incubate at RT overnight. The following day the fluorescence emission from each well was measured in EnVision® (Perkin Elmer) at an excitation of 330 nm and dual emission wavelengths of 615 nm and 665 nm. The signal in each well at 665 nm was multiplied by 10,000 and divided by the signal in the same well at 615 nm to obtain a ratio. Ratio values ([665·10,000]÷615) were plotted as a function of the concentration of compound to determine IC50 values.

Sequence of human recombinant PAK1-KD protein (Q13153 270-521 limits assumed): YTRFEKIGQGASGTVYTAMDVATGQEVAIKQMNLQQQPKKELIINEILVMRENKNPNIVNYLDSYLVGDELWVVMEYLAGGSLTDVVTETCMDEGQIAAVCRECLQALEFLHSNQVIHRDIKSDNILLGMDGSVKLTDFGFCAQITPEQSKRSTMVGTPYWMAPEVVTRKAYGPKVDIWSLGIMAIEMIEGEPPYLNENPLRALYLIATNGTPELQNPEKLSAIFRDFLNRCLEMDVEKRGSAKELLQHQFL

| SMILES | Ki [1] [nM] | IC50 [2] [nM] |
| --- | --- | --- |
| CCNc1ncc2cc(-c3ccc(-c4cncc(C)n4)cc3Cl)c(=O)n(C3COC4(CCNC4)C3)c2n1 (stereo not drawn) [Example I-75, 6-[2-Chloro-4-(6-methylpyrazin-2-yl)phenyl]-2-(ethylamino)-8-(1-oxa-7-azaspiro[4.4]nonan-3-yl)pyrido[2,3-d]pyrimidin-7-one] | 20.3 | 197 |
| Cc1cncc(-c2ccc(-c3cc4cnc(N)nc4n(C[C@H]4CC[C@H](N)CC4)c3=O)c(Cl)c2)n1 [Example I-9, 2-Amino-8-(((1r,4r)-4-aminocyclohexyl)methyl)-6-(2-chloro-4-(6-methylpyrazin-2-yl)phenyl)pyrido[2,3-d]pyrimidin-7(8H)-one] | 14 | 358 |
| CCNc1ncc2cc(-c3ccc(-c4cccc(C)n4)cc3Cl)c(=O)n(CC3CCNCC3)c2n1 [Example I-44, 6-(2-Chloro-4-(6-methylpyridin-2-yl)phenyl)-2-(ethylamino)-8-(piperidin-4-ylmethyl)pyrido[2,3-d]pyrimidin-7(8H)-one] | 4.6 | 72.3 |
| Cc1cccc(-c2ccc(-c3cc4cnc(NC5COC5)nc4n(CCOCCN)c3=O)c(C)c2)n1 [Example I-108, 8-[2-(2-aminoethoxy)ethyl]-6-[2-methyl-4-(6-methyl-2-pyridyl)phenyl]-2-(oxetan-3-ylamino)pyrido[2,3-d]pyrimidin-7-one] | 2.5 | 83.5 |

The remaining lines, values ahead:

| Ki [1] [nM] | IC50 [2] [nM] | SMILES |
| --- | --- | --- |
| 4.8 | 96 | CCNc1ncc2cc(-c3ccc(-c4cncc(C)n4)cc3Cl)c(=O)n(C[C@H]3CC[C@H](NC)CC3)c2n1 [Example I-17, 6-(2-Chloro-4-(6-methylpyrazin-2-yl)phenyl)-2-(ethylamino)-8-(((1r,4r)-4-(methylamino)cyclohexyl)methyl)pyrido[2,3-d]pyrimidin-7(8H)-one] |
| 8.9 | 63.5 | CCNc1ncc2cc(-c3ccc(-c4cncc(C)n4)cc3Cl)c(=O)n(CCC3CNCCO3)c2n1 (single isomer, unassigned) [Example I-22] |
| 4.3 | 131 | CCNc1ncc2cc(-c3ccc(-c4cncc(C)n4)cc3Cl)c(=O)n(CCOCCN)c2n1 [Example I-12, 8-(2-(2-Aminoethoxy)ethyl)-6-(2-chloro-4-(6-methylpyrazin-2-yl)phenyl)-2-(ethylamino)pyrido[2,3-d]pyrimidin-7(8H)-one] |
| 26.8 | 286 | CCNc1ncc2cc(-c3ccc(-c4cncc(C)n4)cc3Cl)c(=O)n(CCC3CCCN3)c2n1 (single isomer, unassigned) [Example I-19] |
| 21.3 | 274 | CCNc1ncc2cc(-c3ccc(-c4cncc(C)n4)cc3Cl)c(=O)n(C[C@H]3CC[C@H](N(C)C)CC3)c2n1 [Example I-10, 6-(2-Chloro-4-(6-methylpyrazin-2-yl)phenyl)-8-(((1r,4r)-4-(dimethylamino)cyclohexyl)methyl)-2-(ethylamino)pyrido[2,3-d]pyrimidin-7(8H)-one] |

Reference: patent publication US20150031674A1, “SERINE/THREONINE KINASE INHIBITORS” (GENENTECH, INC., priority 2013, published 2015)
